Source: US20050072047A1, “Tobacco having reduced nicotine and nitrosamines” (priority 2002, published 2005)
Read-outs that look alike come from different tables or passages of the source.

Assays:
[1] = system: tobacco plants; assay: Nicotine and TSNA levels of field tobacco plants contacted with the compound, versus untreated plants; format: in vivo; details: compared to untreated tobacco plants
Experimental: To reduce the level of nicotine and/or nitrosamine in a cultivated crop or field of tobacco, a concentrated solution of 2,4-D in water (e.g., a 10% solution) with the wetting agent “Agral 60” (e.g., a 0.0006% v/v miscible oil emulsion) is prepared. A control solution containing the wetting agent without 2,4-D is also prepared. These solutions are diluted to 0.1, 1, 10, or 100 ppm of 2,4-D in the final spray solution. Control and experimental fields of tobacco (e.g., Burley, Virginia Flue, and Oriental varieties in separate test plots cultivated by conventional techniques for the particular varieties) at various ages of maturity (some of which have been topped) are sprayed with parallel dilutions of the wetting agent alone. Plants are then sprayed with the above solutions to the dripping-off point. Plants are allowed to continue growing normally for 14 days. Plants are then harvested and sample leaves (from the same position on the plants of the same age) are quick-frozen using liquid nitrogen. Nicotine levels are measured on these sample leaves using standard techniques.
A quick drying curing technique or a conventional curing technique particular to the variety being tested is employed to obtain cured leaves (non-green or yellow dried leaves). Conventional TSNA analysis is then performed on the cured leaves and stems and/or portions thereof (e.g., lamina and midrib of the leaf). By following this approach, the amount of 2,4-D to apply to a specific variety of tobacco, for a specific age of plant (topped or not topped) in the field to achieve a reduced nicotine and/or nitrosamine level is readily determined. In the following example, ethylene precursors, such as ethephon, are used to decrease jasmonate-induced nicotine and/or nitrosamine levels in tobacco.

[2] = system: tobacco plants; details: early flowering stage; Fung et al. 1973; cited from earlier work
[3] = system: lipoxygenase; details: soybean; Creelman 1992; cited from earlier work
[4] = system: lipoxygenase; details: potato; Kolomiets et al. 2001; cited from earlier work
[5] = system: jasmonic acid levels in plants; details: Schweizer et al. 1997; cited from earlier work

SMILES | level of TSNAs in treated tobacco plants [1] | level of nicotine in treated tobacco plants [1] | harm to tobacco plants [2] | effect on lipoxygenase activity [3] | effect on lipoxygenase activity [4] | effect on jasmonic acid levels in plants [5]
O=C(O)COc1ccc(Cl)cc1Cl [2,4-D, 2,4-Dichlorophenoxyacetic acid] | reduced levels | reduced levels | most harmful to tobacco plants during the early flowering stage | – | – | –
COc1ccc2cc([C@H](C)C(=O)O)ccc2c1 [Naproxen] | – | – | – | inhibit lipoxygenase activity | inhibit lipoxygenase activity | –
O=C(O)c1ccccc1O [salicylic acid, 2-hydroxybenzoic acid] | reduced amount | reduced amount | – | – | – | –
Clc1ccc(N2N=N[C@@H]3[C@@H]4C[C@@H]([C@H]5N=N[C@@H]45)[C@@H]32)cc1 [tetcyclacis] | reduced amount | reduced amount | – | – | – | inhibit jasmonic acid levels
